Test results as given in ChEMBL document CHEMBL1147009, “Synthesis and SAR studies of diarylpyrrole anticoccidial agents” (Bioorg Med Chem Lett, 2006).

Legend:
[1] = target: cGMP-dependent protein kinase (Eimeria tenella, UniProt Q8MMZ8); assay: Inhibition of Eimeria tenella PKG
Eimeria acervulina = assay: Anticoccidial activity against Eimeria acervulina at 100 ppm; assay type: functional
Eimeria tenella = assay: Anticoccidial activity against Eimeria tenella at 100 ppm; assay type: functional

Chain of cGMP-dependent protein kinase (Q8MMZ8 whole entry): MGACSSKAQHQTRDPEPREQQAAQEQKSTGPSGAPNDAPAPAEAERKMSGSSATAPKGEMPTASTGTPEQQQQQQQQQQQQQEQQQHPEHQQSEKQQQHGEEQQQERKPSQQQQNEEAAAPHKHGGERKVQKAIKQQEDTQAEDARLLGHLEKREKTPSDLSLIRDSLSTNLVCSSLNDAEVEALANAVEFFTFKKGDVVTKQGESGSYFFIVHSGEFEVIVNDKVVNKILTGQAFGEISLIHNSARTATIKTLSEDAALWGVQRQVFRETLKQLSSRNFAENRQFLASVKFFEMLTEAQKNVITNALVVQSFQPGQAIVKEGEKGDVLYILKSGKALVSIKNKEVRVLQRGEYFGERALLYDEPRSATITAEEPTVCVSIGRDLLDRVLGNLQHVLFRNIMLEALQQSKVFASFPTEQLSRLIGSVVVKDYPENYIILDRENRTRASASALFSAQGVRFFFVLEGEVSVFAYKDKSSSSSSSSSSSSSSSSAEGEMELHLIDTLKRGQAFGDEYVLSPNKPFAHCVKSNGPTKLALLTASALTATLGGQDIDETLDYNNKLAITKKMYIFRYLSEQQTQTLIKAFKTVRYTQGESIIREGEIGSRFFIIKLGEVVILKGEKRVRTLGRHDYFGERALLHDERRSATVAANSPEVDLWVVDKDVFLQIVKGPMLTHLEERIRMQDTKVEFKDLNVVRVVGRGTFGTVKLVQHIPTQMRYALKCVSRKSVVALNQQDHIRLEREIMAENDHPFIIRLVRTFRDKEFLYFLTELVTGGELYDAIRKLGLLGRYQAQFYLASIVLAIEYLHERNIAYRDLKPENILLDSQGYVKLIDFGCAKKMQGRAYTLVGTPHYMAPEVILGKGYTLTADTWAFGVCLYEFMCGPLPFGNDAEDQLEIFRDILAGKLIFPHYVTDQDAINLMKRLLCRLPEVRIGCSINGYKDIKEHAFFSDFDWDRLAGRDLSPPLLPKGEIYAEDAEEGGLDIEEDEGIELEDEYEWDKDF

## CN(C)Cc1cc(-c2ccncc2)c(-c2ccc(F)cc2)[nH]1
[1]
  IC50: 0.35 nM
Eimeria acervulina
  Activity: < 50%

## CN1CCCC1c1cc(-c2ccncc2)c(-c2ccc(F)cc2)[nH]1 (centres undefined)
Eimeria tenella
  Activity: <50%
[1]
  IC50: 1 nM
Eimeria acervulina
  Activity: 80%

## Fc1ccc(-c2[nH]c(CN3CCOCC3)cc2-c2ccncc2)cc1
Eimeria tenella
  Activity: <50%
[1]
  IC50: 7.6 nM
Eimeria acervulina
  Activity: <50%

## OCCN1CCCC1c1cc(-c2ccncc2)c(-c2ccc(F)cc2)[nH]1 (centres undefined)
Eimeria tenella
  Activity: <50%
[1]
  IC50: 2.1 nM
Eimeria acervulina
  Activity: <50%

## CN1CCCCC1c1cc(-c2ccncc2)c(-c2ccc(F)cc2)[nH]1 (centres undefined)
Eimeria tenella
  Activity: <50%
[1]
  IC50: 2.7 nM
Eimeria acervulina
  Activity: <50%

## CN(C)CCc1cc(-c2ccncc2)c(-c2ccc(F)cc2)[nH]1
Eimeria tenella
  Activity: 50%
[1]
  IC50: 2.5 nM
Eimeria acervulina
  Activity: 50%

## CN(C)C(=O)Cc1cc(-c2ccncc2)c(-c2ccc(F)cc2)[nH]1
Eimeria tenella
  Activity: <50%
[1]
  IC50: 4.1 nM
Eimeria acervulina
  Activity: <50%

## CCN(C)CCCc1cc(-c2ccncc2)c(-c2ccc(F)cc2)[nH]1
Eimeria tenella
  Activity: <50%
[1]
  IC50: 4.1 nM
Eimeria acervulina
  Activity: <50%

## O=C(OCc1ccccc1)N1CCCC1c1cc(-c2ccncc2)c(-c2ccc(F)cc2)[nH]1 (centres undefined)
Eimeria tenella
  Activity: <50%
[1]
  IC50: 2.7 nM
Eimeria acervulina
  Activity: <50%

## Fc1ccc(-c2[nH]c(CN3CCCCC3)cc2-c2ccncc2)cc1
Eimeria tenella
  Activity: <50%
[1]
  IC50: 3.7 nM
Eimeria acervulina
  Activity: <50%

## C[C@H](O)CN1CCCC1c1cc(-c2ccncc2)c(-c2ccc(F)cc2)[nH]1 (some centres undefined)
Eimeria tenella
  Activity: 80%
[1]
  IC50: 2.8 nM
Eimeria acervulina
  Activity: <50%

## O=S(=O)(c1ccc(F)cc1)N1CCCC1c1cc(-c2ccncc2)c(-c2ccc(F)cc2)[nH]1 (centres undefined)
Eimeria tenella
  Activity: <50%
[1]
  IC50: 1.5 nM
Eimeria acervulina
  Activity: <50%

## O=C(O)Cc1cc(-c2ccncc2)c(-c2ccc(F)cc2)[nH]1
Eimeria tenella
  Activity: <50%
[1]
  IC50: > 1000 nM
Eimeria acervulina
  Activity: <50%

## OCC1CCN(Cc2cc(-c3ccncc3)c(-c3ccc(F)cc3)[nH]2)CC1
Eimeria tenella
  Activity: <50%
[1]
  IC50: 13 nM
Eimeria acervulina
  Activity: <50%

## C[C@@H](O)CN1CCCC1c1cc(-c2ccncc2)c(-c2ccc(F)cc2)[nH]1 (some centres undefined)
Eimeria tenella
  Activity: <50%
[1]
  IC50: 3.3 nM
Eimeria acervulina
  Activity: <50%

## CC(C)C(c1cc(-c2ccncc2)c(-c2ccc(F)cc2)[nH]1)N(C)C (centres undefined)
Eimeria tenella
  Activity: 50%
[1]
  IC50: 0.71 nM
Eimeria acervulina
  Activity: 80%

## Fc1ccc(-c2[nH]c(C3CCCN3)cc2-c2ccncc2)cc1 (centres undefined)
Eimeria tenella
  Activity: 50%
[1]
  IC50: 3.1 nM
Eimeria acervulina
  Activity: <50%

## CCOC(=O)c1cc(-c2ccncc2)c(-c2ccc(F)cc2)[nH]1
Eimeria tenella
  Activity: <50%
[1]
  IC50: 430 nM
Eimeria acervulina
  Activity: <50%

## Fc1ccc(-c2[nH]c(CN3CCC3)cc2-c2ccncc2)cc1
Eimeria tenella
  Activity: <50%
[1]
  IC50: 1.3 nM
Eimeria acervulina
  Activity: <50%

## CNC(=O)N1CCCC1c1cc(-c2ccncc2)c(-c2ccc(F)cc2)[nH]1 (centres undefined)
Eimeria tenella
  Activity: <50%
[1]
  IC50: 2.3 nM
Eimeria acervulina
  Activity: <50%
